# Measurements from patent US7829297B2, “Treatment of cancers expressing p95 ErbB2” (GlaxoSmithKline LLC, priority 2003, dated 2010).
# What was measured:
# [1] = tested on: MAPK-Erk1/2 and PI3K-AKT pathways, cyclin D1/2; test: Downstream signaling in BT474 tumor xenografts (Western blot); type: in vivo, mice
# Experimental: Equal amounts of protein from tumor xenograft whole cell extracts were separated by SDS-PAGE and steady state protein levels of total and phosphorylated forms Erk1/2 and AKT were assessed by Western blot. Cyclin D1/2 steady state protein levels were also determined.
# [2] = tested on: solid tumor overexpressing or expressing activated EGFR or ErbB2; test: Open label, multi-dose clinical trial in subjects with cancer; type: in vivo, human
# p185^ErbB2 [3] = target: T1, p185^ErbB2 (Homo sapiens, UniProt P04626); test: p185ErbB2 in BT474 tumor xenografts (Western blot); type: in vivo, mice; parameters: The full-length ErbB2 receptor (p185^ErbB2); from tissue; host or cells: BT474 tumour xenografts in mice; conditions: GW572016 100 mg/kg/dose PO or trastuzumab IP
# T1 sequence (P04626 23-1255): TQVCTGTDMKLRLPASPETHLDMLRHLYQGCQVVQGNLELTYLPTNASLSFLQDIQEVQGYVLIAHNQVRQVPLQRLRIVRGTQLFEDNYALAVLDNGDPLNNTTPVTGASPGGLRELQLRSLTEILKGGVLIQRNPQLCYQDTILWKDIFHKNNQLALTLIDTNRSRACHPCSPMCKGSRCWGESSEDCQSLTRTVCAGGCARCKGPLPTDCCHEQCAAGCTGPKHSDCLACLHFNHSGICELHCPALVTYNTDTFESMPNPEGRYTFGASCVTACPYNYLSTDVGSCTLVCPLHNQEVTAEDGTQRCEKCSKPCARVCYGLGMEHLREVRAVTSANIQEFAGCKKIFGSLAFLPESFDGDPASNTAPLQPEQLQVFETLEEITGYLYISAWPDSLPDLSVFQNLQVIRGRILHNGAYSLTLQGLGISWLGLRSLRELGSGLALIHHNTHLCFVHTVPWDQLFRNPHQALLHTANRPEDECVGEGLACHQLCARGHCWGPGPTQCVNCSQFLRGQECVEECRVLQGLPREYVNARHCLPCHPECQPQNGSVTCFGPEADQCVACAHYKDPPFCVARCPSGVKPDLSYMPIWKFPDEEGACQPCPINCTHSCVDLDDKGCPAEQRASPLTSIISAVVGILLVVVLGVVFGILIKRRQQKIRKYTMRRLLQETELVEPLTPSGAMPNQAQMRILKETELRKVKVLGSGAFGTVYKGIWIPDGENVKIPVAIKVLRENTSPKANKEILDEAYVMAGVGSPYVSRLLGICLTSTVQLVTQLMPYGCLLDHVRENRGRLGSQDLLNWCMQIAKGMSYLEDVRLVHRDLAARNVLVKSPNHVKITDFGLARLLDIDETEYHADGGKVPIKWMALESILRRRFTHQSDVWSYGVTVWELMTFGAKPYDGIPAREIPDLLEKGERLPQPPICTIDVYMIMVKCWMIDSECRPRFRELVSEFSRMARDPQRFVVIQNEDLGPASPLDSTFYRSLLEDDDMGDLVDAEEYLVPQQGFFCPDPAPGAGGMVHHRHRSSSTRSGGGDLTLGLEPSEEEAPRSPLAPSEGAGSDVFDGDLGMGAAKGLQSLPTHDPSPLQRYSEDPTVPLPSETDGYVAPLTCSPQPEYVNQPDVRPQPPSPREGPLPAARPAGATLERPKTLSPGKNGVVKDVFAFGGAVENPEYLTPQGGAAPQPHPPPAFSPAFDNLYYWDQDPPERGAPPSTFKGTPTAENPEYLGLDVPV
# Description: (§1) BT474 tumor xenografts were established in CD-1 nude mice.
# p185^ErbB2 [4] = target: T1, p185^ErbB2; test: Western blot of p185ErbB2 in BT474 cells; type: cell-based; parameters: The full-length ErbB2 receptor (p185^ErbB2); endogenous in cells; host or cells: BT474
# Experimental: (§2) Equal amounts of protein were separated by SDS-PAGE and then ErbB2, p95^ErbB2, pTyr/p95^ErbB2, and pTyr/ErbB2 steady state protein levels were assessed by Western blot. […] Along the left side of the lanes, the uppermost arrow indicates p185; lower arrowhead indicates p95. Molecular weights are indicated on the right side of the figure.
# p95^ErbB2 [5] = test: Western blot of p95ErbB2 in BT474 cells; type: cell-based, human
# Experimental: as §2
# ErbB3 = ErbB3 phosphorylation in BT474 tumor xenografts (IP Western blot); conditions: 100 mg/kg/dose, compared with vehicle
# Experimental: Tumors were removed 4 hours after the last dose, frozen in liquid Nitrogen, and stored at −80° C. until analysis. For the terminal biopsy, mice were euthanized with CO2 inhalation. Cell extracts were prepared by homogenization in RIPA buffer at 4° C.
# As shown in FIG. 6a-6c, the activation-state of EGFR, p185^ErbB2, p95^ErbB2, and ErbB3 was assessed by IP Western blot.
# BT474 cells = test: Proliferation of BT474 cells; type: cell-based, human
# p95 = test: Western blot of phospho-p95 in S1 cells; conditions: 5 μM, 24 hours
# p185^ErbB2 [6] = target: T1, p185^ErbB2; test: Western blot of phospho-p185ErbB2 in S1 cells; conditions: 5 μM, 24 hours
# p95^ErbB2 [7] = test: p95ErbB2 in BT474 tumor xenografts (Western blot); type: in vivo, mice
# Description: as §1
# p185^ErbB2 [8] = target: T1, p185^ErbB2; test: Western blot of phospho-p185ErbB2 in Hb4a cells; conditions: parental Hb4a cells, 5 μM, 24 hours
# Erk1/2 and AKT = test: Activation of Erk1/2 and AKT by EGF and heregulin in BT474 cells; type: cell-based, human; conditions: 1 μM
# [9] = GW572016 or trastuzumab (10 mg/kg)
# [10] = 11 breast cancer subjects previously treated with trastuzumab
# [11] = 24 hours, 0.5 μM GW572016 or 10 μg/ml trastuzumab
smiles,measurement,setting,value
"CS(=O)(=O)CCNCc1ccc(-c2ccc3ncnc(Nc4ccc(OCc5cccc(F)c5)c(Cl)c4)c3c2)o1 [GW572016, N-{3-Chloro-4-[(3-fluorobenzyl)oxy]phenyl}-6-[5-({[2-(methylsulfonyl)ethyl]amino}methyl)-2-furyl]-4-quinazolinamine]",total steady state protein levels of Erk1/2 and AKT,[1],without affecting
same,cyclin D steady state protein levels,[1]; [9],inhibited
same,p-AKT steady state protein levels,[1]; [9],inhibited
same,p-Erk1/2 steady state protein levels,[1]; [9],inhibited
same,Partial Responses among breast cancer subjects,[2]; [10],three
same,Stable Disease among breast cancer subjects,[2]; [10],four
same,"breast cancer subjects exhibiting responses, of eleven","[2]; 11 breast cancer subjects, all previously treated with trastuzumab, oral ditosylate salt, daily",seven
same,response of bone metastases,"[2]; Patient No. 361, 1200 mg/day",did not respond
same,time to disappearance of all subcutaneous nodules,"[2]; Patient No. 361, 1200 mg/day",≤ 28 days
same,anterior abdominal wall nodules,"[2]; Patient No. 372, 1200 mg/day",improved
same,decrease in two right breast masses,"[2]; Patient No. 372, 1200 mg/day, August to October 2002",70%
same,"stable disease, number of subjects",[2]; adenocarcinoma of unknown primary origin,1
same,"stable disease, number of subjects",[2]; colorectal cancer,2
same,"stable disease, number of subjects",[2]; granular cell cancer,1
same,"stable disease, number of subjects",[2]; head and neck cancer,1
same,total responses out of 33 subjects,"[2]; initial 33 subjects with validated responses, all tumor types",15
same,"stable disease, number of subjects",[2]; lung cancer,1
same,"stable disease, number of subjects",[2]; ovarian cancer,2
same,phospho-p185ErbB2 steady state protein levels,p185^ErbB2 [3],inhibited
same,steady state protein levels of total p185ErbB2,p185^ErbB2 [3],unchanged
same,phosphorylation of p185ErbB2 in presence and absence of HRG and EGF,"p185^ErbB2 [4]; 1 μM, 16 hours, ErbB2 IP",inhibited
same,p185ErbB2 phosphorylation (anti-pTyr Western blot),"p185^ErbB2 [4]; 1 μM, 24 hours",inhibited
same,steady-state p185ErbB2 protein levels (anti-ErbB2 ECD mAb),p185^ErbB2 [4]; [11],did not vary
same,tyrosine phosphorylation of p185ErbB2 (anti-pTyr mAb),p185^ErbB2 [4]; [11],inhibited
same,phosphorylation of p95ErbB2 in presence and absence of HRG and EGF,"p95^ErbB2 [5]; 1 μM, 16 hours, ErbB2 IP",inhibited
same,HRG-induced p95ErbB2 phosphorylation,"p95^ErbB2 [5]; 1 μM, 16 hours, HRG 5 nM 15 min, ErbB3 IP",partially blocked
same,tyrosine phosphorylation of p95ErbB2 (anti-pTyr mAb),p95^ErbB2 [5]; [11],inhibited
same,ErbB3 tyrosine phosphorylation,ErbB3,markedly inhibited
same,proliferation of BT474 cells,BT474 cells,inhibited
same,reversal of antiproliferative effect in the presence of EGF,BT474 cells; BT474 cells,not completely reversed
same,effect of prolonged incubation on protection by heregulin,"BT474 cells; BT474 cells, 1 μM, prolonged incubation (data not shown)",abrogated the protective effects of heregulin
same,reversal of inhibitory effects by addition of heregulin,"BT474 cells; BT474 cells, 72 hour assay",partially reversed
same,p95 phosphorylation,p95,inhibited
same,p185ErbB2 phosphorylation,p185^ErbB2 [6],inhibited
same,steady state protein levels of total p95ErbB2,p95^ErbB2 [7]; GW572016 100 mg/kg/dose PO or trastuzumab IP,unchanged
same,phospho-p95ErbB2 steady state protein levels,"p95^ErbB2 [7]; GW572016 100 mg/kg/dose PO, 100 mg/kg",markedly inhibited
same,Y1248 phosphorylation in p95ErbB2,p95^ErbB2 [7]; GW572016 100 mg/kg/dose or trastuzumab,inhibited
same,phosphorylation of p185ErbB2,p185^ErbB2 [8],inhibited
same,EGF-induced increase of p-Erk1/2 steady state protein levels,Erk1/2 and AKT; EGF 50 ng/ml 15 minutes,blocked
same,HRG-induced AKT phosphorylation,Erk1/2 and AKT; HRG,partially inhibited
